Measurements as given in ChEMBL document CHEMBL4673396, “Structural Basis for Targeting the Folded P-Loop Conformation of c-MET” (ACS Med Chem Lett, 2021).

Assay: Lipophilicity, logD of the compound in octanol and water at pH 7.4 by shake-flask method
Type: physicochemical

| logD | SMILES |
| --- | --- |
| 4 | O=C1NCc2c(-c3cnc4[nH]cc(Cc5ccccc5)c4c3)c[nH]c21 |
| 2.31 | c1ccc(Cc2c[nH]c3ncc(-c4cnn(C5CCNCC5)c4)cc23)cc1 |
| 2.5 | Fc1ccccc1Cc1c[nH]c2ncc(-c3cnn(C4CCNCC4)c3)cc12 |

Continued, molecule first:

| SMILES | logD |
| --- | --- |
| Fc1cccc(Cc2c[nH]c3ncc(-c4cnn(C5CCNCC5)c4)cc23)c1 | 2.4 |
| Fc1ccc(Cc2c[nH]c3ncc(-c4cnn(C5CCNCC5)c4)cc23)cc1 | 2.4 |
